Assay results taken from patent USRE38257E1, “Piperdine derivatives and hypotensives containing the same” (Ajinomoto Co., Inc., priority 1988, dated 2003).

System: male spontaneously hypertensive rats
Assay: Decrease in systolic blood pressure in spontaneously hypertensive rats after intravenous bolus injection, indirect (tail-cuff) method
Type: in vivo, rat
Settings: for Decrease in systolic blood pressure (mmHg) time after administration (hour) 0.5: 0.5 hour after administration; for Decrease in systolic blood pressure (mmHg) time after administration (hour) 4: 4 hours after administration
Procedure: As test animals, four male spontaneously hypertensive rats (weight 400 to 440 g) that were sufficiently adapted for feeding and in which hypertension was confirmed were used.
Physiological saline aqueous solution containing 2.5% Nicolle and 2.5% ethanol of sample was intravenously administered by bolus injection at a dose of 1 ml per 1 kg of body weight. Systolic blood pressure after administration was measured by the indirect (tail-cuff) method.

[1] = dose 10 mg/kg i.v. bolus, hydrochloride, 10 mg/kg

Molecule	Decrease in systolic blood pressure (mmHg) time after administration (hour) 0.5 (dose 10 mg/kg i.v. bolus) [mmHg]	Decrease in systolic blood pressure (mmHg) time after administration (hour) 4 (dose 10 mg/kg i.v. bolus) [mmHg]	also measured
3-(4-(5H-Dibenzo[a,d]cyclohepten-5-ylidene)-1-piperidinyl)-1-(2-pyridyl)-1-propane hydrochloride [Example 284]			Decrease in systolic blood pressure (mmHg) time after administration (hour) 0.5 (dose 3 mg/kg i.v. bolus): −151 mmHg; Decrease in systolic blood pressure (mmHg) time after administration (hour) 4 (dose 3 mg/kg i.v. bolus): −40 mmHg
CC(=O)Nc1ccccc1C=CCN1CCC(=C2c3ccccc3C=Cc3ccccc32)CC1.Cl [Example 304, 1-(2-Acetylaminocinnamyl)-4-(5H-dibenzo[a,d]cyclohepten-5-ylidene)-1-piperidine hydrochloride]	−49	−5	
CCCCCCC(C#N)(CCCN1CCC(=C2c3ccccc3C=Cc3ccccc32)CC1)c1cccc(C(F)(F)F)c1.Cl (centres unmarked) [Example 151, 5-(4-(5H-Dibenzo[ac]cyclohepten-5-ylidene)-1-piperidinyl)-2-hexyl-2-(3-trifluoromethylphenyl)valeronitrile hydrochloride]	−81	−43	
CC(=O)Nc1cccc2c1CC(CN1CCC(=C3c4ccccc4C=Cc4ccccc43)CC1)C2.Cl (centres unmarked) [Example 331, 4′Acetylamino-2(4-(5H-Dibenzo[a,d]cyclohepten-5-ylidene)-1-Piperidinyl)methylindan hydrochloride]	−62	−14	
COc1cccc(CN2CCC(=C3c4ccccc4C=Cc4ccccc43)CC2)c1.Cl [Example 118, 4-(5H-Dibenzo[a,d]cyclohepten-5-ylidene)-1-(3-methoxybenzyl)piperidine hydrochloride]	−129	−24	
CC(=O)Oc1cccc(C=CCN2CCC(=C3c4ccccc4C=Cc4ccccc43)CC2)c1.Cl [Example 368, 1-(3-Acetoxycinnamyl)-4-(5H-Dibenzo[a,d]cyclohepten-5-ylidene)piperidine hydrochloride]			Decrease in systolic blood pressure (mmHg) time after administration (hour) 0.5 (dose 3 mg/kg i.v. bolus): −110 mmHg; Decrease in systolic blood pressure (mmHg) time after administration (hour) 4 (dose 3 mg/kg i.v. bolus): −68 mmHg
COc1ccc2c(c1OC)CCC(CCN1CCC(=C3c4ccccc4C=Cc4ccccc43)CC1)C2.Cl (centres unmarked) [Example 318, 2-(3-(4-(5H-Dibenzo[a,d]cyclohepten-5-ylidene)-1-piperidinyl)-1-ethyl)-5,6-dimethoxy-1,2,34-tetrahydronaphthalene hydrochloride]	−83	−57	
N-(2-(5H-Dibenzo[a,d]cyclohepten-5-ylidene)-1-piperidinyl)ethyl isonicotinamide hydrochloride [Example 244]	−19	4	
C1=Cc2ccccc2C(=C2CCN(CCc3ccccc3)CC2)c2ccccc21.Cl [Example 13, 2-(4-(5H-Dibenzo[a,d]cyclohepten-5-ylidene)-1-piperidinyl)-1-phenylethane hydrochloride]	−47	4	
Cl.NS(=O)(=O)c1ccc(C=CCN2CCC(=C3c4ccccc4C=Cc4ccccc43)CC2)cc1 [Example 386, 1-(4-Aminosulfonylcinnamyl)-4-(5H-Dibenzo[a,d]cyclohepten-5-ylidene)piperidine hydrochloride]	−83	−96	
5-(4-(5H-Dibenzo[a,d]cyclohepten-5-ylidene)-1-piperidinyl)-2-isopropyl-2-phenylvaleronitrile hydrochloride [Example 122]	−120	−62	
COc1ccc(C(C#N)(CCCN2CCC(=C3c4ccccc4C=Cc4ccccc43)CC2)C(C)C)cc1OC.Cl (centres unmarked) [Example 31, 5-(4-(5H-Dibenzo[a,d]cyclohepten-5-ylidene)-1-piperidinyl)-2-(3,4-dimethoxyphenyl)-2-isopropylvaleronitrile hydrochloride]	−61	−11	
Cl.N#CCCCN1CCC(=C2c3ccccc3C=Cc3ccccc32)CC1 [Example 166, 1-Cyano-4-[4-(5H-dibenzo[a,d]cyclohepten-5-ylidene)-1-piperidinyl)propane hydrochloride]			Decrease in systolic blood pressure (mmHg) time after administration (hour) 0.5 [1]: −45 mmHg; Decrease in systolic blood pressure (mmHg) time after administration (hour) 4 [1]: 6 mmHg
COc1ccc(C(=O)C(CCN2CCC(=C3c4ccccc4C=Cc4ccccc43)CC2)C(C)C)cc1OC.Cl (centres unmarked) [Example 275, 4-(4-(5H-Dibenzo[a,d]cyclohepten-5-ylidene)-1-piperidinyl)-2-(2-propyl)-3′,4′-dimethoxybutyrophenone hydrochloride]	−66	−20	
C1=Cc2ccccc2C(=C2CCN(CC3CCc4ccccc4C3)CC2)c2ccccc21 (centres unmarked) [Example 225, 4-(5H-Dibenzo[a,d]cyclohepten-5-ylidene)-1-(1,2,3,4-tetrahydro-2-naphthylmethyl)piperidine]	−115	−31	
CCCCCCCCCCCCCCCCCCCN1CCC(=C2c3ccccc3C=Cc3ccccc32)CC1.Cl [Example 135, 4-(5H-Dibenzo[a,d]cyclohepten-5-ylidene)-1-nondecylpiperidine hydrochloride]	−132	−50	
Cl.N#CC1CCC(CCCCN2CCC(=C3c4ccccc4C=Cc4ccccc43)CC2)CC1 (centres unmarked) [Example 297, 1-(1-(4-Cyano)cyclohexyl)-4-(4-(5H-Dibenzo[a,d]cyclohepten-5-ylidene)-1-piperidinyl)butane hydrochloride]	−129	−57	
C1=Cc2ccccc2C(=C2CCN(CCCCC3CCCCC3)CC2)c2ccccc21.Cl [Example 283, 4-(4-(4-(5H-Dibenzo[a,d]cyclohepten-5-ylidene)-1-piperidinyl)-1-butyl)cyclohexane hydrochloride]			Decrease in systolic blood pressure (mmHg) time after administration (hour) 0.5 [1]: −112 mmHg; Decrease in systolic blood pressure (mmHg) time after administration (hour) 4 [1]: 4 mmHg
COC(=O)c1ccc(C=CCN2CCC(=C3c4ccccc4C=Cc4ccccc43)CC2)cc1.Cl [Example 376, 4-(5H-Dibenzo[a,d]cyclohepten-5-ylidene)-1-(4-methoxycarbonylcinnamyl)piperidine hydrochloride]			Decrease in systolic blood pressure (mmHg) time after administration (hour) 0.5 (dose 3 mg/kg i.v. bolus): −106 mmHg; Decrease in systolic blood pressure (mmHg) time after administration (hour) 4 (dose 3 mg/kg i.v. bolus): −77 mmHg
Cl.O=C(NCCN1CCCCC1=C1c2ccccc2C=Cc2ccccc21)c1cccc([N+](=O)[O-])c1 [Example 290, N-(2-(5H-Dibenzo[a,d]cyclohepten-5-ylidene)-1-piperidinyl)ethyl-3-nitrobenzamide hydrochloride]			Decrease in systolic blood pressure (mmHg) time after administration (hour) 0.5 (dose 3 mg/kg i.v. bolus): −15 mmHg; Decrease in systolic blood pressure (mmHg) time after administration (hour) 4 (dose 3 mg/kg i.v. bolus): 15 mmHg
COc1cc(C=CCN2CCC(=C3c4ccccc4C=Cc4ccccc43)CC2)cc(OC)c1OC.Cl [Example 320, 4-(5H-Dibenzo[a,d]cyclohepten-5-ylidene)-1-(3,4,5-trimethoxycinnamyl)piperdine hydrochloride]	−147	−113	
Cl.Fc1ccc(C=CCN2CCC(=C3c4ccccc4C=Cc4ccccc43)CC2)cc1 [Example 353]	−147	−138	
COc1cc(CCCN2CCC(=C3c4ccccc4C=Cc4ccccc43)CC2)cc(OC)c1OC.Cl.Cl [Example 317, 3-(4-(5H-Dibenzo[a,d]cyclohepten-5-ylidene)-1-piperidinyl)-1-(3,4,5-trimethoxyphenyl)propane dihydrochloride]	−118	−14	
CCCC(CCN1CCC(=C2c3ccccc3C=Cc3ccccc32)CC1)C(=O)c1ccc(OC)c(OC)c1.Cl (centres unmarked) [Example 277, 4-(4-(5H-dibenzo[a,d]cyclohepten-5-ylidene)-1-piperidinyl)-2-(1-propyl)-3′,4′-dimethoxybutyrophenone hydrochloride]	−27	0	
Cc1ccccc1C(=O)N1CCC(=C2c3ccccc3C=Cc3ccccc32)CC1 [Example 190, 4-(5H-Dibenzo[a,d]cyclohepten-5-ylidene)-1-(2-methylbenzoyl)piperidine]	−11	−15	
